Results reported in PubChem BioAssay (NCI).
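Growth conditions: 96-well plates. Treatment: test compound, 48 hours, 5 concentrations. Analysis: linear interpolation between bracketing concentrations; unreached endpoints set to highest concentration. At the GI50, growth is halved. At the TGI there is no net growth.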

Assays:
Assay in all cases: growth of human tumour cells (NCI), 48 h
SF-268 CNS = tested on: SF-268 CNS
A549 NSCLC = tested on: A549 NSCLC
SK-MEL-2 melanoma = tested on: SK-MEL-2 melanoma
HOP-62 NSCLC = tested on: HOP-62 NSCLC
HS 578T breast = tested on: HS 578T breast
T-47D breast = tested on: T-47D breast
MDA-MB-435 = tested on: MDA-MB-435
NCI-H23 lung = tested on: NCI-H23 lung
SF-295 CNS = tested on: SF-295 CNS
HL-60(TB) leukemia = tested on: HL-60(TB) leukemia
BT-549 breast = tested on: BT-549 breast
NCI/ADR-RES ovarian = tested on: NCI/ADR-RES ovarian
HCT-15 colon = tested on: HCT-15 colon
NCI-H460 lung = tested on: NCI-H460 lung
OVCAR-4 ovarian = tested on: OVCAR-4 ovarian
K-562 leukemia = tested on: K-562 leukemia
RPMI-8226 leukemia = tested on: RPMI-8226 leukemia
UACC-62 melanoma = tested on: UACC-62 melanoma
OVCAR-5 ovarian = tested on: OVCAR-5 ovarian
SN12C renal = tested on: SN12C renal
U251 CNS = tested on: U251 CNS
SK-OV-3 ovarian = tested on: SK-OV-3 ovarian
786-0 renal = tested on: 786-0 renal
SW-620 colon = tested on: SW-620 colon
NCI-H226 lung = tested on: NCI-H226 lung
MALME-3M melanoma = tested on: MALME-3M melanoma
OVCAR-8 ovarian = tested on: OVCAR-8 ovarian
HOP-92 NSCLC = tested on: HOP-92 NSCLC
LOX IMVI melanoma = tested on: LOX IMVI melanoma

`NS(=O)(=O)c1ccc(-n2ncc3c(Nc4ccccc4)ncnc32)cc1` was tested. Which TGI (SF-268 CNS) did it give?
The TGI was greater than 100 µM.

And the GI50 (A549 NSCLC)?
Its GI50 is 14.3 µM.

What about the TGI (A549 NSCLC) of the same molecule?
Its TGI is greater than 100 µM.

And the GI50 (SK-MEL-2 melanoma)?
The GI50 was 44.3 µM.

And the TGI (SK-MEL-2 melanoma)?
Its TGI is greater than 100 µM.

And the GI50 (HOP-62 NSCLC)?
The GI50 was 16.7 µM.

What about the TGI (HOP-62 NSCLC) of the same molecule?
Its TGI is 48.5 µM.

What about the GI50 (HS 578T breast) of the same molecule?
The GI50 was 33.8 µM.

What about the TGI (HS 578T breast) of the same molecule?
The TGI was greater than 100 µM.

What about the GI50 (T-47D breast) of the same molecule?
The GI50 was 24.2 µM.

What about the TGI (T-47D breast) of the same molecule?
The TGI was greater than 100 µM.

And the GI50 (MDA-MB-435)?
The GI50 was 46.2 µM.

What about the TGI (MDA-MB-435) of the same molecule?
Its TGI is greater than 100 µM.

And the GI50 (NCI-H23 lung)?
Its GI50 is 1.37 µM.

What about the TGI (NCI-H23 lung) of the same molecule?
Its TGI is 23.8 µM.

What about the GI50 (SF-295 CNS) of the same molecule?
Its GI50 is 16.9 µM.

And the TGI (SF-295 CNS)?
Its TGI is 53.4 µM.

What about the GI50 (HL-60(TB) leukemia) of the same molecule?
Its GI50 is 6.59 µM.

And the TGI (HL-60(TB) leukemia)?
The TGI was 92.7 µM.

And the GI50 (BT-549 breast)?
The GI50 was 30.3 µM.

And the TGI (BT-549 breast)?
Its TGI is 92.8 µM.

What about the GI50 (NCI/ADR-RES ovarian) of the same molecule?
Its GI50 is 19.5 µM.

And the TGI (NCI/ADR-RES ovarian)?
The TGI was 55.4 µM.

What about the GI50 (HCT-15 colon) of the same molecule?
The GI50 was 19.1 µM.

And the TGI (HCT-15 colon)?
Its TGI is greater than 100 µM.

And the GI50 (NCI-H460 lung)?
The GI50 was 14.9 µM.

What about the TGI (NCI-H460 lung) of the same molecule?
Its TGI is greater than 100 µM.

And the GI50 (OVCAR-4 ovarian)?
The GI50 was 32.1 µM.

And the TGI (OVCAR-4 ovarian)?
The TGI was greater than 100 µM.

What about the GI50 (K-562 leukemia) of the same molecule?
The GI50 was 4.44 µM.

What about the TGI (K-562 leukemia) of the same molecule?
Its TGI is 37.7 µM.

And the GI50 (RPMI-8226 leukemia)?
The GI50 was 15.3 µM.

What about the TGI (RPMI-8226 leukemia) of the same molecule?
Its TGI is 76.6 µM.

What about the GI50 (UACC-62 melanoma) of the same molecule?
The GI50 was 42.8 µM.

What about the TGI (UACC-62 melanoma) of the same molecule?
Its TGI is greater than 100 µM.

What about the GI50 (OVCAR-5 ovarian) of the same molecule?
The GI50 was 34.9 µM.

And the TGI (OVCAR-5 ovarian)?
The TGI was greater than 100 µM.

And the GI50 (SN12C renal)?
The GI50 was greater than 100 µM.

What about the TGI (SN12C renal) of the same molecule?
Its TGI is greater than 100 µM.

What about the GI50 (U251 CNS) of the same molecule?
Its GI50 is 26.9 µM.

And the TGI (U251 CNS)?
The TGI was greater than 100 µM.

What about the GI50 (SK-OV-3 ovarian) of the same molecule?
The GI50 was 99.8 µM.

What about the TGI (SK-OV-3 ovarian) of the same molecule?
Its TGI is greater than 100 µM.

What about the GI50 (786-0 renal) of the same molecule?
The GI50 was 18.3 µM.

What about the TGI (786-0 renal) of the same molecule?
Its TGI is 55.7 µM.

What about the GI50 (SW-620 colon) of the same molecule?
The GI50 was 30.3 µM.

What about the TGI (SW-620 colon) of the same molecule?
Its TGI is greater than 100 µM.

And the GI50 (NCI-H226 lung)?
The GI50 was 46.4 µM.

And the TGI (NCI-H226 lung)?
Its TGI is greater than 100 µM.

What about the GI50 (MALME-3M melanoma) of the same molecule?
Its GI50 is 33 µM.

And the TGI (MALME-3M melanoma)?
Its TGI is greater than 100 µM.

And the GI50 (OVCAR-8 ovarian)?
Its GI50 is 18.3 µM.

What about the TGI (OVCAR-8 ovarian) of the same molecule?
Its TGI is 65 µM.

And the GI50 (HOP-92 NSCLC)?
The GI50 was 23.6 µM.

What about the TGI (HOP-92 NSCLC) of the same molecule?
Its TGI is greater than 100 µM.

What about the GI50 (LOX IMVI melanoma) of the same molecule?
The GI50 was 14.9 µM.

And the TGI (LOX IMVI melanoma)?
Its TGI is 70 µM.
